The target of the assay is human APJ receptor (Homo sapiens (Human), UniProt P35414). As to the kind of experiment: biochemical. The class given is biochemical. Conditions: [35S]GTPγS binding, CHO membranes expressing human APJ receptor; read-out: Activity hAPJ SPA EC50 IP. The essentials: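 GTPγS binding on membranes from CHO cells stably expressing FLAG-tagged human APJ, with optimized GDP, MgCl2 and NaCl; incubated 90 min at RT before imaging read-out.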

pEC50: −log10 of the molar value.

human APJ receptor, sequence (P35414 whole entry): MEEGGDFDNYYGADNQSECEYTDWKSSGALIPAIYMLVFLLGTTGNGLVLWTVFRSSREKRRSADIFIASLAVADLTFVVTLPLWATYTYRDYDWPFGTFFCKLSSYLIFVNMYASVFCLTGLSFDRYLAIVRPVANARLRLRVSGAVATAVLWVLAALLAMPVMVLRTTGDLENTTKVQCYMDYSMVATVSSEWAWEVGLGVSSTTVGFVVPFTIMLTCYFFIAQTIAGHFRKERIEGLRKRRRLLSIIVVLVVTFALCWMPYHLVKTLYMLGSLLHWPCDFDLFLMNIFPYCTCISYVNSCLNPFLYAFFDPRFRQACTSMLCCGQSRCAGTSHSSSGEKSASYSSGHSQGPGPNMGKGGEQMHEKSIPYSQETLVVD

Consider “(R)-N-(4-(2,6-dimethoxyphenyl)-5-(1,5-dimethyl-1H-pyrazol-3-yl)-4H-1,2,4-triazol-3-yl)-1-(5-fluoropyrimidin-2-yl)propane-2-sulfonamide and (S)-N-(4-(2,6-dimethoxyphenyl)-5-(1,5-dimethyl-1H-pyrazol-3-yl)-4H-1,2,4-triazol-3-yl)-1-(5-fluoropyrimidin-2-yl)propane-2-sulfonamide [Example 46.0]”, for which the pEC50 (as a rule, the EC50 on a negative log10 scale, so that one unit is a factor of ten) is 7.51.
In the case of `COc1cccc(OC)c1-n1c(NS(=O)(=O)[C@@H](C)[C@H](C)c2cnc(C)cn2)nnc1-c1ccn(C)n1` [Example 306.0, (2S,3R)-N-(4-(2,6-dimethoxyphenyl)-5-(1-methyl-1H-pyrazol-3-yl)-4H-1,2,4-triazol-3-yl)-3-(5-methyl-2-pyrazinyl)-2-butanesulfonamide], the negative logarithm of the EC50 (pEC50) was 8.60.
As to `COc1cccc(OC)c1-n1c(NS(=O)(=O)CCc2ccc(F)cc2C#N)nnc1-c1csc(C)n1` [Example 148.0, 2-(2-cyano-4-fluorophenyl)-N-(4-(2,6-dimethoxyphenyl)-5-(2-methylthiazol-4-yl)-4H-1,2,4-triazol-3-yl)ethanesulfonamide], the pEC50 was 7.51.
For `COCc1nc(-c2nnc(NS(=O)(=O)CCc3ccc(Cl)cc3)n2-c2c(OC)cccc2OC)cs1` [Example 146.0], the pEC50 was 7.01.
Consider `COc1ccc(N2CCC2=O)cc1-n1c(NS(=O)(=O)CCc2ccc(F)cc2Br)nnc1-c1cccs1` [Example 131.0, 2-(2-Bromo-4-fluorophenyl)-N-(4-(2-methoxy-5-(2-oxoazetidin-1-yl)phenyl)-5-(thiophen-2-yl)-4H-1,2,4-triazol-3-yl)ethanesulfonamide], for which the pEC50 is 8.39.
Under “(1R,2S)-N-(4-(2,6-dimethoxyphenyl)-5-(1-methyl-1H-pyrazol-3-yl)-4H-1,2,4-triazol-3-yl)-1-methoxy-1-(5-methoxy-2-pyrazinyl)-2-propanesulfonamide and (1S,2R)-N-(4-(2,6-dimethoxyphenyl)-5-(1-methyl-1H-pyrazol-3-yl)-4H-1,2,4-triazol-3-yl)-1-methoxy-1-(5-methoxy-2-pyrazinyl)-2-propanesulfonamide [Example 307.0]” stands 9.00; under `COc1cccc(OC)c1-n1c(NS(=O)(=O)[C@@H](C)[C@@H](OC(C)C)c2ncc(C)cn2)nnc1-c1noc(C)c1C` [Example 517.0, (1S,2S)-N-(4-(2,6-dimethoxyphenyl)-5-(4,5-dimethylisoxazol-3-yl)-4H-1,2,4-triazol-3-yl)-1-isopropoxy-1-(5-methylpyrimidin-2-yl)propane-2-sulfonamide], 8.52; under `COCC1(n2c(NS(=O)(=O)[C@@H](C)[C@H](OC)c3ncc(Cl)cn3)nnc2-c2n[nH]c3c2CCCC3)CC1` [Example 491.0, (1R,2S)-1-(5-chloropyrimidin-2-yl)-1-methoxy-N-(4-(1-(methoxymethyl)cyclopropyl)-5-(4,5,6,7-tetrahydro-1H-indazol-3-yl)-4H-1,2,4-triazol-3-yl)propane-2-sulfonamide], 7.82.
Consider `COc1ncnc(OC)c1-n1c(NS(=O)(=O)[C@@H](C)[C@H](C)c2ncc(C)cn2)nnc1-c1nc(C)cs1` [Example 3.0, (2S,3R)-N-(4-(4,6-dimethoxypyrimidin-5-yl)-5-(4-methylthiazol-2-yl)-4H-1,2,4-triazol-3-yl)-3-(5-methylpyrimidin-2-yl)butane-2-sulfonamide], for which the pEC50 is 8.59.
In the case of `COc1cccc(OC)c1-n1c(NS(=O)(=O)[C@@H](C)[C@H](OC)c2ncc(C)cn2)nnc1-c1noc(C)c1C` [Example 516.0], the negative logarithm of the EC50 (pEC50) was 7.74.
For the compound `COc1cccc(OC)c1-n1c(NS(=O)(=O)[C@H](C)[C@@H](OC)c2ncc(F)cn2)nnc1-c1ccn(C)n1` (single isomer, unassigned) [Example 117.0, (1S,2R)-N-(4-(2,6-dimethoxyphenyl)-5-(1-methyl-1H-pyrazol-3-yl)-4H-1,2,4-triazol-3-yl)-1-(5-fluoropyrimidin-2-yl)-1-methoxypropane-2-sulfonamide or (1R,2S)-N-(4-(2,6-dimethoxyphenyl)-5-(1-methyl-1H-pyrazol-3-yl)-4H-1,2,4-triazol-3-yl)-1-(5-fluoropyrimidin-2-yl)-1-methoxypropane-2-sulfonamide], the pEC50 was 9.16.
Under `COc1cnc([C@@H](OC)[C@H](C)S(=O)(=O)Nc2nnc(-c3ccn(C)n3)n2-c2c(OC)cccc2OC)cn1` (single isomer, unassigned) [Example 309.0, (1R,2S)-N-(4-(2,6-dimethoxyphenyl)-5-(1-methyl-1H-pyrazol-3-yl)-4H-1,2,4-triazol-3-yl)-1-methoxy-1-(5-methoxy-2-pyrazinyl)-2-propanesulfonamide or (1S,2R)-N-(4-(2,6-dimethoxyphenyl)-5-(1-methyl-1H-pyrazol-3-yl)-4H-1,2,4-triazol-3-yl)-1-methoxy-1-(5-methoxy-2-pyrazinyl)-2-propanesulfonamide] stands 7.47; under `COc1cccc(OC)c1-n1c(NS(=O)(=O)CCc2ccc(Cl)cc2)nnc1-c1cnco1` [Example 138.0, 2-(4-chlorophenyl)-N-(4-(2,6-dimethoxyphenyl)-5-(oxazol-5-yl)-4H-1,2,4-triazol-3-yl)ethanesulfonamide], 6.23.
As for `COc1cccc(OC)c1-n1c(NS(=O)(=O)[C@H](C)Cc2ncc(F)cn2)nnc1-c1cnccn1` (single isomer, unassigned) [Example 30.0, (R)-N-(4-(2,6-dimethoxyphenyl)-5-(pyrazin-2-yl)-4H-1,2,4-triazol-3-yl)-1-(5-fluoropyrimidin-2-yl)propane-2-sulfonamide or (S)-N-(4-(2,6-dimethoxyphenyl)-5-(pyrazin-2-yl)-4H-1,2,4-triazol-3-yl)-1-(5-fluoropyrimidin-2-yl)propane-2-sulfonamide], the pEC50 is 6.46.
Turning to “(R)-N-(4-(2,6-dimethoxyphenyl)-5-(1,5-dimethyl-1H-pyrazol-3-yl)-4H-1,2,4-triazol-3-yl)-1-(5-fluoropyrimidin-2-yl)propane-2-sulfonamide and (S)-N-(4-(2,6-dimethoxyphenyl)-5-(1,5-dimethyl-1H-pyrazol-3-yl)-4H-1,2,4-triazol-3-yl)-1-(5-fluoropyrimidin-2-yl)propane-2-sulfonamide [Example 54.0]”, the negative-log EC50 (pEC50) is 7.48.
In the case of `COc1cccc(OC)c1-n1c(NS(=O)(=O)[C@H](C)Cc2ncc(F)cn2)nnc1-c1ccn(C)c1` (single isomer, unassigned) [Example 35.0, (R)-N-(4-(2,6-dimethoxyphenyl)-5-(1-methyl-1H-pyrrol-3-yl)-4H-1,2,4-triazol-3-yl)-1-(5-fluoropyrimidin-2-yl)propane-2-sulfonamide or (S)-N-(4-(2,6-dimethoxyphenyl)-5-(1-methyl-1H-pyrrol-3-yl)-4H-1,2,4-triazol-3-yl)-1-(5-fluoropyrimidin-2-yl)propane-2-sulfonamide], the pEC50 is 7.57.
With `COc1cccc(OC)c1-n1c(NS(=O)(=O)CCc2ccc(Cl)cc2)nnc1-c1cccs1` [Example 311.0, 2-(4-Chlorophenyl)-N-(4-(2,6-dimethoxyphenyl)-5-(thiophen-2-yl)-4H-1,2,4-triazol-3-yl)ethanesulfonamide], the negative-log EC50 (pEC50) is 8.42.
On to `COCC1(n2c(NS(=O)(=O)[C@@H](C)[C@H](OC)c3ncc(Cl)cn3)nnc2-c2n[nH]c3ccccc23)CC1` [Example 495.0, (1R,2S)-1-(5-chloro-2-pyrimidinyl)-N-(5-(1H-indazol-3-yl)-4-(1-(methoxymethyl)cyclopropyl)-4H-1,2,4-triazol-3-yl)-1-methoxy-2-propanesulfonamide], for which the pEC50 was 7.89.
For the compound `CCO[C@H](c1ncc(C)cn1)[C@H](C)S(=O)(=O)Nc1nnc(-c2cc3n(n2)CCC3)n1-c1c(OC)cccc1OC` [Example 217.0, (1R,2S)-N-(5-(5,6-dihydro-4H-pyrrolo[1,2-b]pyrazol-2-yl)-4-(2,6-dimethoxyphenyl)-4H-1,2,4-triazol-3-yl)-1-ethoxy-1-(5-methyl-2-pyrimidinyl)-2-propanesulfonamide], the negative logarithm of the EC50 (pEC50) was 8.55.
In the case of `Cc1cnc([C@H](OC(C)C)[C@H](C)S(=O)(=O)Nc2nnc(-c3cnn4c3CCC4)n2-c2c(F)cccc2F)cn1` [Example 484.0, (1S,2S)-N-(4-(2,6-difluorophenyl)-5-(5,6-dihydro-4H-pyrrolo[1,2-b]pyrazol-3-yl)-4H-1,2,4-triazol-3-yl)-1-isopropoxy-1-(5-methylpyrazin-2-yl)propane-2-sulfonamide], the pEC50 was 8.04.
As to `COc1nccc(-c2nnc(NS(=O)(=O)[C@@H](C)[C@H](C)c3ncc(F)cn3)n2-c2c(OC)cccc2OC)n1` [Example 197.0, (2S,3R)-N-(4-(2,6-dimethoxyphenyl)-5-(2-methoxy-4-pyrimidinyl)-4H-1,2,4-triazol-3-yl)-3-(5-fluoro-2-pyrimidinyl)-2-butanesulfonamide], the negative logarithm of the EC50 (pEC50) is 8.62.
Take `CO[C@H](c1ncc(Cl)cn1)[C@H](C)S(=O)(=O)Nc1nnc(-c2cnn3ccccc23)n1C1CC1` [Example 507.0, (1R,2S)-1-(5-chloropyrimidin-2-yl)-N-(4-cyclopropyl-5-(pyrazolo[1,5-a]pyridin-3-yl)-4H-1,2,4-triazol-3-yl)-1-methoxypropane-2-sulfonamide]: the pEC50 is 7.42.
In the case of `COc1cccc(OC)c1-n1c(NS(=O)(=O)C[C@H](OC)c2ccc(F)cc2S(C)(=O)=O)nnc1-c1ccn(C)n1` (single isomer, unassigned) [Example 372.0, (R)-N-(4-(2,6-Dimethoxyphenyl)-5-(1-methyl-1H-pyrazol-3-yl)-4H-1,2,4-triazol-3-yl)-2-(4-fluoro-2-(methylsulfonyl)phenyl)-2-methoxyethanesulfonamide or (S)-N-(4-(2,6-dimethoxyphenyl)-5-(1-methyl-1H-pyrazol-3-yl)-4H-1,2,4-triazol-3-yl)-2-(4-fluoro-2-(methylsulfonyl)phenyl)-2-methoxyethanesulfonamide], the pEC50 is 8.85.

Source of the values: patent US11046680B1, “Heteroaryl-substituted triazoles as APJ receptor agonists” (priority 2016, dated 2021).
